According to US11389424B2, “Methods and compositions for treating chemotherapy-induced diarrhea” (NAPO PHARMACEUTICALS, INC., priority 2017, dated 2022):
Where two headings read alike, the source gives them in different places.

Legend:
[1] = test system: recurrent, cutaneous mast cell tumors; conditions: cited from earlier work
[2] = 9-month toxicity study (WIL-288022), oral (capsule) administration of enteric-coated crofelemer tablets; set-up: species or system beagle dogs; conditions: dog, in vivo
Method: The dose for this study was based on data obtained from a pilot study that assessed the clinical effectiveness of crofelemer (SP-303) in alleviating clinical signs associated with secretory diarrhea in dogs (CANA-001) and the wide margin of safety established in 30-day (WIL-288006) and 9-month (WIL-288022) toxicity studies. Chronic safety of crofelemer in dogs was studied in a 9-month study during which tablets were administered in capsules once daily, 7 days per week, for 273 or 274 days to three groups of beagle dogs. Dosage levels were 50, 175 and 600 mg/kg/day, plus a concurrent control group. Based on the results of this study, the no-observed-adverse-effect level (NOAEL) for oral (capsule) administration of enteric-coated crofelemer tablets to dogs for 273 or 274 consecutive days was 50 mg/kg/day. […] Thus, the no effect level is estimated to be between 50 and 175 mg/kg/day.

Compound | objective response (primary effectiveness endpoint) ([1]; end of the six-week masked phase, vs placebo 8%, p<0.001) [%] | all grade diarrhea ([1]; masked phase) [%] | grade 3-4 diarrhea ([1]; masked phase) [%] | any grade diarrhea ([1]; masked plus open label phases) [%] | grade 3-4 diarrhea ([1]; masked plus open label phases) [%] | primary adverse effect at the higher dosages [2]
Cc1[nH]c(/C=C2\C(=O)Nc3ccc(F)cc32)c(C)c1C(=O)NCCN1CCCC1.O=P(O)(O)O [toceranib phosphate, Toceranib phosphate] | 37 | 46 | 7 | 59 | 8 | –
Crofelemer | – | – | – | – | – | gastrointestinal irritation
